Measured values reported in US20250264459A1, “IN VITRO ASSAY TO PREDICT CARDIOTOXICITY” (Stemina Biomarker Discovery, Inc., priority 2018, published 2025).
Like-named read-outs stand apart in the source and are kept apart here.

How the values were obtained:
[1] = system: human iPSC-CM (iCell Cardiomyocytes); assay: Dose-response cell viability (CellTiter-Fluor) in iPSC-derived cardiomyocytes, maximum acceptable viability exposure; assay type: cell-based
Method: Metabolomic data was acquired to identify non-cytotoxic exposure levels and identify biomarkers of cardiotoxicity from a dose-response experiment using spent medium of iPSC-CM treated with 53 of the compounds in the training set. Briefly, human iPSC-CM (iCell® Cardiomyocytes, cat #R1007, Cellular Dynamics International) were exposed to eight concentrations of each training set compound. Spent media was collected for LC-MS analysis and cell viability was assessed with the CellTiter-Fluor Cell Viability Assay (Promega). Spent media samples were prepared and analyzed using the methods developed in Specific Aim 1. The spent media samples from iPSC-CM treated with 10 representative cardiotoxic and non-cardiotoxic compounds were analyzed with all four LC-MS methods to rank biological significant secretome features by predictive capacity. […]
The goal of the concentration-response phase of biomarker identification was to identify non-cytotoxic exposure levels that change iPSC-CM metabolism. The method included modeling feature response, calculating maximum acceptable viability (MAVE), determining response at Cmax, and MAVE, reviewing the top 4 responding features, and selecting the highest tested exposure with 90% viability.

[2] = cited from earlier work
[3] = highest exposure tested with ≥90% viability, iPSC-CM, eight concentrations

Compound | MAVE (Maximum Acceptable Viability Exposure) ([1]; human) | Cmax Total ([2]; therapeutic total Cmax) | Cmax Total ([2]; in vivo) | MAVE (Maximum Acceptable Viability Exposure) [1, 3]
CNC(=O)c1cc(Oc2ccc(NC(=O)Nc3ccc(Cl)c(C(F)(F)F)c3)cc2)ccn1 [Sorafenib] | 3 µM | – | – | –
COc1cc(N)c(Cl)cc1C(=O)NC1CCN(CCCOc2ccc(F)cc2)CC1OC (centres unmarked) [Cisapride] | 100 µM | 0.18 µM | – | –
CSc1ccc2c(c1)N(CCC1CCCCN1C)c1ccccc1S2 (centres unmarked) [Thioridazine] | 1 µM | – | – | –
CCN[C@@H](C)Cc1cccc(C(F)(F)F)c1 [Dexfenfluramine] | 30 µM | – | 0.4 µM | –
CS(=O)(=O)CCNCc1ccc(-c2ccc3ncnc(Nc4ccc(OCc5cccc(F)c5)c(Cl)c4)c3c2)o1 [Lapatinib] | 10 µM | 4.18 µM | – | –
CCCCCCc1ccc(O)cc1O [Hexylresorcinol] | 30 µM | 1 µM | – | –
CCCN1C[C@H](CSC)C[C@@H]2c3cccc4[nH]cc(c34)C[C@H]21 [Pergolide] | 30 µM | 0.003 µM | – | –
C[C@@H]1C/C=C/C=C/C=C/C=C/[C@H](O[C@@H]2O[C@H](C)[C@@H](O)[C@H](N)[C@@H]2O)C[C@@H]2O[C@](O)(C[C@@H](O)C[C@H]3O[C@@H]3/C=C/C(=O)O1)C[C@H](O)[C@H]2C(=O)O [Natamycin] | 30 µM | – | – | –
O=C1NCCN1CCN1CCC(c2cn(-c3ccc(F)cc3)c3ccc(Cl)cc23)CC1 [Sertindole] | 0.3 µM | 0.32 µM | – | –
CCN(CC)CCNC(=O)c1c(C)[nH]c(/C=C2\C(=O)Nc3ccc(F)cc32)c1C [Sunitinib] | 1 µM | 0.25 µM | – | –
CC(=O)[C@]1(O)Cc2c(O)c3c(c(O)c2[C@@H](O[C@H]2C[C@H](N)[C@H](O)[C@H](C)O2)C1)C(=O)c1ccccc1C3=O [Idarubicin] | 0.1 µM | 0.12 µM | – | –
CN1CCN(C2=Nc3cc(Cl)ccc3Nc3ccccc32)CC1 [Clozapine] | 10 µM | 0.95 µM | – | –
Cc1occc(=O)c1O [Maltol] | 100 µM | 30 µM | – | –
CN(C)CCC=C1c2ccccc2CCc2ccccc21 [Amitriptyline] | 1 µM | 0.95 µM | – | –
Cc1nc(Nc2ncc(C(=O)Nc3c(C)cccc3Cl)s2)cc(N2CCN(CCO)CC2)n1 [Dasatinib] | 10 µM | 0.72 µM | – | –
c1ccc2[nH]c(-c3cscn3)nc2c1 [Thiabendazole] | 100 µM | 30.8 µM | – | –
CCN(CC)CCCC(C)Nc1ccnc2cc(Cl)ccc12 (centres unmarked) [Chloroquine] | 3 µM | 0.96 µM | – | –
CC(C)NCC(O)c1ccc(O)c(O)c1 (centres unmarked) [Isoproterenol] | 100 µM | 0.01 µM | – | –
COc1cccc2c1C(=O)c1c(O)c3c(c(O)c1C2=O)C[C@@](O)(C(C)=O)C[C@@H]3O[C@H]1C[C@H](N)[C@H](O)[C@H](C)O1 [Daunorubicin] | 0.1 µM | 89 µM | – | –
COc1cc2c(Nc3ccc(Br)cc3F)ncnc2cc1OCC1CCN(C)CC1 [Vandetanib] | 1 µM | 3.3 µM | – | –
O=C1O[C@H]([C@@H](O)CO)C(O)=C1O [Ascorbic Acid] | 100 µM | 36 µM | – | –
CCN1/C(=C/C=C/C=C/c2sc3ccccc3[n+]2CC)Sc2ccccc21 [Dithiazanine Iodide] | 0.1 µM | 0.1 µM | – | –

Compound | MAVE (Maximum Acceptable Viability Exposure) ([1]; human) | Cmax Total ([2]; therapeutic total Cmax) | Cmax Total ([2]; in vivo) | MAVE (Maximum Acceptable Viability Exposure) [1, 3]
CC(=O)O[C@H]1C(=O)[C@@]2(C)[C@H]([C@H](OC(=O)c3ccccc3)[C@]3(O)C[C@H](OC(=O)[C@H](O)[C@@H](NC(=O)c4ccccc4)c4ccccc4)C(C)=C1C3(C)C)[C@]1(OC(C)=O)CO[C@@H]1C[C@@H]2O [Paclitaxel] | 0.03 µM | – | – | –
O=c1[nH]cc(F)c(=O)[nH]1 [Fluorouracil] | 100 µM | 4.6 µM | – | –
CNCCC=C1c2ccccc2CCc2ccccc21 [Nortriptyline] | 1 µM | 0.57 µM | – | –
Cc1ccc(NC(=O)c2ccc(CN3CCN(C)CC3)cc2)cc1Nc1nccc(-c2cccnc2)n1 [Imatinib] | 3 µM | – | – | –
CC(C)C[C@H](N)C(=O)O [Leucine] | 100 µM | – | – | –
CC(C)C[C@H](NC(=O)[C@H](Cc1ccccc1)NC(=O)c1cnccn1)B(O)O [Bortezomib] | 0.1 µM | 0.3 µM | – | –
COc1cccc2c1C(=O)c1c(O)c3c(c(O)c1C2=O)C[C@@](O)(C(=O)CO)C[C@@H]3O[C@H]1C[C@H](N)[C@H](O)[C@H](C)O1 [Doxorubicin] | 0.1 µM | 15.3 µM | – | –
CNC(=C[N+](=O)[O-])NCCSCc1ccc(CN(C)C)o1 [Ranitidine] | 100 µM | 1.7 µM | – | –
O=C1c2c(O)ccc(O)c2C(=O)c2c(NCCNCCO)ccc(NCCNCCO)c21 [Mitoxantrone] | 1 µM | – | – | –
C#Cc1cccc(Nc2ncnc3cc(OCCOC)c(OCCOC)cc23)c1 [Erlotinib] | 3 µM | 3.8 µM | – | –
O=C(O)c1ccccc1 [Benzoic Acid] | 100 µM | 36 µM | – | –
O=C1CN2Cc3c(ccc(Cl)c3Cl)N=C2N1 [Anagrelide] | 30 µM | 0.06 µM | – | –
O=C(O)CC(O)(CC(=O)O)C(=O)O [Citric Acid] | 100 µM | 128 µM | – | –
Cc1onc(-c2ccccc2)c1-c1ccc(S(N)(=O)=O)cc1 [Valdecoxib] | 100 µM | 0.51 µM | – | –
O=C(O)C(O)C(O)C(=O)O (centres unmarked) [Tartaric Acid] | 100 µM | – | – | –
Arsenic Trioxide | – | 12.1 µM | – | 10 µM
Phenylphenol | – | 0.09 µM | – | 100 µM
OC[C@@H](O)[C@@H](O)[C@H](O)[C@@H](O)CO [Sorbitol] | 100 µM | 3.9 µM | – | –
CC(C)(C)c1ccc(C(O)CCCN2CCC(C(O)(c3ccccc3)c3ccccc3)CC2)cc1 (centres unmarked) [Terfenadine] | 3 µM | 0.3 µM | – | –
CN(C)CCN(Cc1cccs1)c1ccccn1 [Methapyrilene] | 100 µM | 15.3 µM | – | –
C[C@@H]1[C@H](O)[C@@H](C)/C=C/C=C/C=C/C=C/C=C/C=C/C=C/[C@H](O[C@@H]2O[C@H](C)[C@@H](O)[C@H](N)[C@@H]2O)C[C@@H]2O[C@](O)(C[C@@H](O)C[C@@H](O)[C@H](O)CC[C@@H](O)C[C@@H](O)CC(=O)O[C@H]1C)C[C@H](O)[C@H]2C(=O)O [Amphotericin B] | – | 89.8 µM | – | 3 µM
COc1ccc(C(=O)Nc2ccccc2CCC2CCCCN2C)cc1 (centres unmarked) [Encainide] | 100 µM | 0.71 µM | – | –
